Earlier results as cited in paper PMC6050274, “Buparlisib is a brain penetrable pan-PI3K inhibitor” (Scientific Reports, 2018).

Conditions: cited from earlier work

brain-plasma ratio, ≤ 1:
COC1(c2sc3c(N4CCOCC4)nc(-c4cnc(N)nc4)nc3c2C)COC1 [GNE-317]
Cn1c(=O)n(-c2ccc(C(C)(C)C#N)cc2)c2c3cc(-c4cnc5ccccc5c4)ccc3ncc21 [NVP-BEZ235]
FC(F)c1nc2ccccc2n1-c1nc(N2CCOCC2)nc(N2CCOCC2)n1 [ZSTK474]
